Results as given in patent US6479519B1, “Substituted anilides” (Aventis Pharma Limited, priority 1997, dated 2002).

Compound | melting point
COc1cc(N(C(C)=O)c2ccc([C@@H](CC(=O)O)NC(=O)CN)cc2)ccc1NC(=O)Nc1ccccc1C [Example 10, (R)-3-[(2-amino-acetyl)amino]-3-(4-{3-methoxy-4-[3-(2-methylphenyl)ureido]phenyl-acetylamino}phenyl)propanoic acid] | 105 to 108 °C (dec.)
COc1cc(CC(=O)Nc2ccc([C@@H](CC(=O)O)NC(=O)CCCC(=O)O)cc2)ccc1NC(=O)Nc1ccccc1C [Example 5(h), (R)-3-(4-carboxybutanoyl-amino)-3-(4-{3-methoxy-4-[3-(2-methylphenyl)ureido]phenylacetylamino}-phenyl)-propanoic acid] | 220 to 222 °C
COc1cc(CC(=O)Nc2ccc([C@@H](CC(=O)O)NC(=O)c3ccc[n+]([O-])c3)cc2)ccc1NC(=O)Nc1ccccc1C [Example 11, (R)-3-[(1-oxido-pyridine-3-carbonyl)amino]-3-(4-{3-methoxy-4-[3-(2-methylphenyl)ureido]-phenylacetylamino}phenyl)-propanoic acid] | 190 °C (dec.)
